Columns and labels:
Jurkat T cells [1] = experiment: Western blot of EVs for CD81 and cytochrome c (EV secretion, cell death); type: cell-based; conditions: anacardic acid versus DMSO
Protocol: (§1) FIG. 13. Assessment of sumoylation inhibitor efficiency. (A) Western blot analysis of hnRNPA1 in T cells and their EVs. (B) Representative western blot showing the decrease in sumo-conjugated proteins in the presence of anacardic acid. Cells were incubated with anacardic acid (AA) or DMSO (control condition, CONT) and cell extracts were blotted for SUMO-1. (C) Representative western blot showing no changes in EV secretion and cell death in the presence of anacardic acid. Cells were incubated with anacardic acid (AA) or DMSO (CONT), and EV were purified by ultracentrifugation and blotted for CD81 and cytochrome c.
(§2) To confirm whether the higher molecular weight of EVs hnRNPA2B1 was due to sumoylation, we cultured Jurkat T cells in the presence of the specific sumoylation inhibitor anacardic acid (AA). Briefly, cells were cultured with anacardic acid (100 μM) (Sigma) or 6 DMSO for 4 h at 37° C. Cells were then diluted 1:4 and incubated overnight. EVs and cells were resuspended in buffer 1 for western blotting or hnRNPA2B1 immunoprecipitation (FIG. 13B).

sumo-conjugated proteins = experiment: Western blot of cell extracts for SUMO-1 (sumoylation inhibitor efficiency); type: cell-based, human; conditions: anacardic acid versus DMSO
Protocol: as §1, §2

Jurkat T cells [2] = experiment: qPCR of miRNA levels in EVs from control or AA-treated cells; type: cell-based, human; conditions: anacardic acid 100 μM versus DMSO
hnRNPA2B1 sumoylation = experiment: Western blot of hnRNPA2B1 molecular weight in EVs with sumoylation inhibitor; type: cell-based, human; conditions: anacardic acid 100 μM 4 h, then diluted 1:4 overnight; versus DMSO
Protocol: as §2

hnRNPA2B1 [3] = experiment: hnRNPA2B1 IP-qPCR from EV lysates of control or AA-treated cells; type: cell-based, human; conditions: EV lysates from AA-treated versus control cells
Protocol: as §2

hnRNPA2B1 [4] = experiment: pull-down of EV extracts with biotinylated miRNA-coated streptavidin beads, mass spectrometry; type: binding, human
Protocol: To analyze the molecular mechanism that controls the packaging of miRNAs presenting the motifs of the invention in EVs, a search was performed of the proteins present in EVs and which bind specifically to EVmiRNAs. For this purpose, extracts of isolated EVs from human T lymphoblasts were incubated in the presence of streptavidin beads coated with biotinylated EVmiRNA miR-198, or with biotinylated CLmiRNA miR-17. The analysis of EVs-coupled beads was performed by FACS. Briefly, Evs were obtained by ultracentrifugation and sucrose gradient flotation, resuspended in PBS and coupled to 4 μm aldehyde-sulfate beads (Invitrogen) overnight at room temperature in rotation. Beads were washed and blocked for 60 min at room temperature in 4% BSA in PBS. For intracellular staining, bead-bound Evs were permeabilized and fixed for 5 min at room temperature with 0.2% TX, 2% FA in PBS. […] Beads were acquired on a FACSCalibur (BD) and data were analyzed with FlowJo software (Tree Star). […] Briefly, the peptides were resuspended and injected onto a C-18 reversed phase (RP) nano-column (75 μm 2 I.D.×25 cm, Acclaim PepMap100, Thermo Scientific) and analyzed in a continuous acetonitrile gradient consisting of 0-43% B in 90 min, 50-90% B in 1 min (B=90% acetonitrile, 0.5% acetic acid). […] SEQUEST results were validated using the probability ratio method and false discovery rates calculated using the refined method. […]
Target sequence in this assay (P22626 15-353 limits assumed): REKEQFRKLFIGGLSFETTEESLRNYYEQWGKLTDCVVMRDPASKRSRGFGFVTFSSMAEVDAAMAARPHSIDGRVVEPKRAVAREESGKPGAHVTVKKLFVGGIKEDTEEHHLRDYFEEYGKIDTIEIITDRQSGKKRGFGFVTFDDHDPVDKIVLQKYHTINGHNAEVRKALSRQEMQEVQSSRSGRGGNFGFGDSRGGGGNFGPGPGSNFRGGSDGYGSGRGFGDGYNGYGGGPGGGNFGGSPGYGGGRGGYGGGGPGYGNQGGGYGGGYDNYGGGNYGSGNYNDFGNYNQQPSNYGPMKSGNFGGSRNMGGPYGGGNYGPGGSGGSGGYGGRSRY

HNRPC = biological target: T1, HNRPC (Homo sapiens, UniProt P07910); experiment: as above; type: binding; conditions: HNRPC precipitated from EV extracts of human T lymphoblasts
T1 construct: endogenous in cells; host or cells: extracellular vesicles from primary human T lymphoblasts
Protocol: (§3) To analyze the molecular mechanism that controls the packaging of miRNAs presenting the motifs of the invention in EVs, a search was performed of the proteins present in EVs and which bind specifically to EVmiRNAs. For this purpose, extracts of isolated EVs from human T lymphoblasts were incubated in the presence of streptavidin beads coated with biotinylated EVmiRNA miR-198, or with biotinylated CLmiRNA miR-17. The analysis of EVs-coupled beads was performed by FACS. Briefly, Evs were obtained by ultracentrifugation and sucrose gradient flotation, resuspended in PBS and coupled to 4 μm aldehyde-sulfate beads (Invitrogen) overnight at room temperature in rotation. Beads were washed and blocked for 60 min at room temperature in 4% BSA in PBS. For intracellular staining, bead-bound Evs were permeabilized and fixed for 5 min at room temperature with 0.2% TX, 2% FA in PBS. Beads were incubated with antihnRNPA2B1 (Santa Cruz) or anti-CD81 (5A6, Santa Cruz) for 1 h at 4° C., washed and incubated with Alexa-488-goat-anti-mouse IgG (Invitrogen) for 30 min. Beads were acquired on a FACSCalibur (BD) and data were analyzed with FlowJo software (Tree Star). Negative controls were obtained with EV-coupled beads incubated with the secondary antibody. The proteins collected were identified by high performance mass spectrometry. As negative controls, uncoated or poly-A-coated streptavidin beads were used. Briefly, proteins were in-gel digested using a previously-described protocol. Briefly, 75 μl of beads were suspended in 25 μl sample buffer and loaded in 2.8-cm-wide wells of an SDS-PAGE gel. The run was stopped as soon as the front entered 3 mm into the resolving gel; the protein band was visualized by Coomassie staining, excised and digested overnight at 37° C. with 60 ng/μl trypsin at 5:1 protein:trypsin (w/w) ratio in 50 mM ammonium bicarbonate, pH 8.8 containing 10% ACN. The resulting tryptic peptides were extracted by 1 h incubation in 12 mM ammonium bicarbonate, pH 8.8. TFA was added to a final concentration of 1% and the peptides were finally desalted onto C18 Oasis cartridges and dried down. Peptide identification by mass spectrometry was performed as described. Briefly, the peptides were resuspended and injected onto a C-18 reversed phase (RP) nano-column (75 μm 2 I.D.×25 cm, Acclaim PepMap100, Thermo Scientific) and analyzed in a continuous acetonitrile gradient consisting of 0-43% B in 90 min, 50-90% B in 1 min (B=90% acetonitrile, 0.5% acetic acid). A flow rate of ca. 300 nL/min was used to elute peptides from the RP nano-column to an emitter nanospray needle for real time ionization and peptide fragmentation on an LTQ XP Orbitrap mass spectrometer (Thermo Fisher, San José, Calif., USA). An enhanced FT spectrum (30.000 resolution) followed by MS/MS spectra from most intense ten parent ions were performed along the chromatographic run (130 min). Dynamic exclusion was set at 30 s. The MS/MS raw files were searched against the Human Swissprot database (Uniprot release 14.0, 19929 sequence entries for human) supplemented with porcine trypsin and bacterial Streptavidin. SEQUEST results were validated using the probability ratio method and false discovery rates calculated using the refined method. Peptide and scan counting was performed assuming as positive events those with a FDR equal to or lower than 5%.

RS4X = biological target: T2, RS4X (Homo sapiens, UniProt P62701); experiment: as above; type: binding; conditions: RS4X precipitated from EV extracts of human T lymphoblasts
T2 construct: endogenous in cells; host or cells: extracellular vesicles from primary human T lymphoblasts
Protocol: as §3

HNRPU = biological target: T3, HNRPU (Homo sapiens, UniProt Q00839); experiment: as above; type: binding; conditions: HNRPU precipitated from EV extracts of human T lymphoblasts
T3 construct: endogenous in cells; host or cells: extracellular vesicles from primary human T lymphoblasts
Protocol: as §3

NUCL = biological target: T4, NUCL (Homo sapiens, UniProt P19338); experiment: as above; type: binding; conditions: NUCL precipitated from EV extracts of human T lymphoblasts
T4 construct: endogenous in cells; host or cells: extracellular vesicles from primary human T lymphoblasts
Protocol: as §3

hnRNPA1 = biological target: T5, hnRNPA1 (Homo sapiens, UniProt P09651); experiment: as above; type: binding
T5 construct: endogenous in cells; host or cells: extracellular vesicles from primary human T lymphoblasts
Protocol: as §3

RS3 = biological target: T6, RS3 (Homo sapiens, UniProt P23396); experiment: as above; type: binding; conditions: RS3 precipitated from EV extracts of human T lymphoblasts
T6 construct: endogenous in cells; host or cells: extracellular vesicles from primary human T lymphoblasts
Protocol: as §3

T5 sequence (P09651 whole entry): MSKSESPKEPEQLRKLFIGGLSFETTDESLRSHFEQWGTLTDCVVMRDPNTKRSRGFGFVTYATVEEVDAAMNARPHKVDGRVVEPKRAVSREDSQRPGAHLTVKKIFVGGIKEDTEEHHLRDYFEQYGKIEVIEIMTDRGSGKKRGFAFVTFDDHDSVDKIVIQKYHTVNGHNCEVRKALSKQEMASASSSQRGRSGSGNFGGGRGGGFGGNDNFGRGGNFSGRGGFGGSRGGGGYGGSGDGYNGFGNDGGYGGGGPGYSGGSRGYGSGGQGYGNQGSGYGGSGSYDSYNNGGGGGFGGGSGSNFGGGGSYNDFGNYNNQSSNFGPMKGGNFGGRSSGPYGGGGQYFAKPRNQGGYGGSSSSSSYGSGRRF
T4 sequence (P19338 whole entry): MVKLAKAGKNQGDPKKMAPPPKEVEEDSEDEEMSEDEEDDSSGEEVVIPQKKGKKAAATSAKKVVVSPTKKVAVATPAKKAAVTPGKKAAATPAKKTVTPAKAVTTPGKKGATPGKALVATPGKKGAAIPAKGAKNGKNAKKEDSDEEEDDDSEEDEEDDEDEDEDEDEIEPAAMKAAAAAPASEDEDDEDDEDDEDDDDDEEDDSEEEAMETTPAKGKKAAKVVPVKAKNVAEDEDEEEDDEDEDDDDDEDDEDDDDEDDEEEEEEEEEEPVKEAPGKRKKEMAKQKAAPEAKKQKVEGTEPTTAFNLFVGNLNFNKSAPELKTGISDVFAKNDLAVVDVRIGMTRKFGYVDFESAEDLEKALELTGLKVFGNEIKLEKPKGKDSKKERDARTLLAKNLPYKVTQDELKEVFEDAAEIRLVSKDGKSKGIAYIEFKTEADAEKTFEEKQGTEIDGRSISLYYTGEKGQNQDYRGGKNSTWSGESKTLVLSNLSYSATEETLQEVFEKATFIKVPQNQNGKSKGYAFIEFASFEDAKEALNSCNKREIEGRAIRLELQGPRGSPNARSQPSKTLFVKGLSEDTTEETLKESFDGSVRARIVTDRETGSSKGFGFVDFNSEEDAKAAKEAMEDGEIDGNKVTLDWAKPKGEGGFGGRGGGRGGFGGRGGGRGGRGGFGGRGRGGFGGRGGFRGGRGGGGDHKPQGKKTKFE
T3 sequence (Q00839 whole entry): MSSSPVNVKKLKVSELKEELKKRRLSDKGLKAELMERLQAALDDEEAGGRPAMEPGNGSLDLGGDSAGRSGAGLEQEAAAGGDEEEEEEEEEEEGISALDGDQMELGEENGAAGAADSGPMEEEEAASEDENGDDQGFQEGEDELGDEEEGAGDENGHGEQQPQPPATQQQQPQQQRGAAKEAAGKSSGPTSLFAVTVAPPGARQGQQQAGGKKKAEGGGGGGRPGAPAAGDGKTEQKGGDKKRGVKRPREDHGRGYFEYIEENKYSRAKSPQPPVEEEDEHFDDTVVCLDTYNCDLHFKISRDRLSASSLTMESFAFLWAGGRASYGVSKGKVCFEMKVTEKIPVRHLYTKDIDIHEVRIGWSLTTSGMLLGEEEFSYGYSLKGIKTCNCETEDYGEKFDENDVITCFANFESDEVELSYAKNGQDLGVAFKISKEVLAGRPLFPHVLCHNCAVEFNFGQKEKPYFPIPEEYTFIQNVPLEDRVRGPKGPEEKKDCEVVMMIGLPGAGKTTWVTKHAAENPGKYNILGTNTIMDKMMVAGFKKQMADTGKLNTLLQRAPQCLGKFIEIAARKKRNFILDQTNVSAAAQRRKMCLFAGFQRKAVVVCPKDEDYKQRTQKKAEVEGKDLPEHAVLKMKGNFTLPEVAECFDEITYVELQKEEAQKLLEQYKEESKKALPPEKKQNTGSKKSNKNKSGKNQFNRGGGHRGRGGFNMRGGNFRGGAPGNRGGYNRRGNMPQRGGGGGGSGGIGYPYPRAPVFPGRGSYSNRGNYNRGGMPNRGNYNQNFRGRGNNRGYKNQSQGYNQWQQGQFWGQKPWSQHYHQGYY
T1 sequence (P07910 whole entry): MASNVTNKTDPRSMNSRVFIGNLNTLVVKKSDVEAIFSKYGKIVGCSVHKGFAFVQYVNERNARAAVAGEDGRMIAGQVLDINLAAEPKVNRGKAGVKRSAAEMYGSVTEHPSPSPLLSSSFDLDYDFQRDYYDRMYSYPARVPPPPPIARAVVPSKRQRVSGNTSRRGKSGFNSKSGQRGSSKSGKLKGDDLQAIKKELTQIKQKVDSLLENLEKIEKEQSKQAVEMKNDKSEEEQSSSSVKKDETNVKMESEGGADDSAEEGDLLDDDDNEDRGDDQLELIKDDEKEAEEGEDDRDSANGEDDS

Compound	EV secretion (CD81 blot) (Jurkat T cells [1])	cell death (cytochrome c blot) (Jurkat T cells [1])	sumo-conjugated proteins (SUMO-1 blot) (sumo-conjugated proteins)	levels of miR-17 in EVs (Jurkat T cells [2])	levels of miR-18 in EVs (Jurkat T cells [2])	levels of miR-198 in EVs (Jurkat T cells [2])	low-molecular weight hnRNPA2B1 band in EVs (hnRNPA2B1 sumoylation)	miR-198 bound to hnRNPA2B1 (IP-qPCR) (hnRNPA2B1 [3])	Number of peptides identified by mass spectrometry (hnRNPA2B1 [4]; hnRNPA2B1 precipitated from EV extracts of human T lymphoblasts)	binding of hnRNPA2B1 (in words) (hnRNPA2B1 [4]; pull-down from EV extracts)	Number of peptides identified by mass spectrometry (HNRPC)	Number of peptides identified by mass spectrometry (RS4X)	Number of peptides identified by mass spectrometry (HNRPU)	Number of peptides identified by mass spectrometry (NUCL)	Number of peptides identified by mass spectrometry (hnRNPA1; hnRNPA1 precipitated from EV extracts of human T lymphoblasts)	binding of hnRNPA1 (in words) (hnRNPA1; pull-down from EV extracts)	Number of peptides identified by mass spectrometry (RS3)
CCCCCCCCCCCCCCCc1cccc(O)c1C(=O)O [anacardic acid]	no changes	no changes	decrease	did not change	did not change	reduced	could be readily detected	decreased binding	–	–	–	–	–	–	–	–	–
poly-A	–	–	–	–	–	–	–	–	0	no binding	0	0	0	8	0	no binding	0

Reference: patent US20160130577A1, “NUCLEOTIDE SEQUENCE MOTIFS DIRECTING NUCLEIC ACID LOCATION TO EXTRACELLULAR VESICLES” (FUNDACIÓN CENTRO NACIONAL DE INVESTIGACIONES …, priority 2012, published 2016)
